Experimental data taken from article PMC9879403, “Oncolytic strategy using new bifunctional HDACs/BRD4 inhibitors against virus-associated lymphomas” (PLOS Pathogens, 2023).
Where two headings read alike, the source gives them in different places.

Columns and labels:
HDACs = HDACs signaling by Western blot (H3K9Ac, H4K9Ac, Acetyl-tubulin); assay type: cell-based; conditions: BCBL-1 cells, 48 h, Western blot
BCP-1 = assay: WST-1 cytotoxicity assay, BCP-1 (KSHV+ PEL); assay type: cell-based; conditions: BCP-1, 72 h
Excerpt: (§1) Fig 2 Identification of newly synthesized dual inhibitors with anti-PEL activities. (A) The binding mode of (+)-JQ1 with BRD4^BD1 (PDB: 3MXF). BRD4^BD1 is shown as hot pink cartoon with gray surface. Asn140 in BRD4^BD1 is shown as sticks and colored in following pattern: atom C hot pink, atom N dark blue, and atom O yellow. (+)-JQ1 is shown as sticks and colored in following patten: atom C hot pink, atom N dark blue, atom O yellow, atom S golden, and atom Cl green. The solvent exposed region (SEG) of (+)-JQ1 are indicated with white arrow. (B) The binding modes of SAHA and entinostat with HDAC2 (PDB: 3MAX). HDAC2 is shown as blue cartoon with gray surface. Asp181 and His183 in HDAC2 are shown as sticks and colored in following pattern: atom C blue, atom N dark blue, and atom O yellow. The catalytic zinc ion in the active site of HDAC2 is shown as black sphere. SAHA is shown as sticks and colored in following pattern: atom C green, atom N dark blue, and atom O yellow. Entinostat is shown as sticks and colored in following pattern: atom C hot pink, atom N dark blue, and atom O yellow. The SEG of SAHA or entinostat is indicated with white arrow. Hydrogen bonds (H-bonds) are presented by red dash lines. (C) The HDACs/BRD4 dual inhibitors 002-011 were designed by fusing the key pharmacophores of (+)-JQ1 (pink) and HDAC inhibitors (blue), SAHA or entinostat, via various chemical linkers (green). (D) Anti-PEL activities of the new compounds. Five KSHV positive and two KSHV negative lymphoma cell lines were treated with indicated concentrations of these compounds for 72 h. Then the cytotoxicity was determined using the WST-1 assay. (+)-JQ1, SAHA and entinostat were used for the comparisons as single inhibitors. The CC50 for each compound was calculated using GraphPad Prism 5.0 software. Error bars represent S.D. for 3 independent experiments.
(§2) Fig 4 Identification of anti-PEL activities for compound 009 stereoisomers. (A) The chemical structures of anti-HDACs/BRD4 bifunctional molecules 009P1 and 009P2, as well as anti-HDACs or anti-BRD4 mono-functional molecules 009N1, 009N2, 009N3, and 009N4. (B-C) Four KSHV+ PEL cell lines were treated with indicated concentrations of 009P1, 009P2 or 009N1-N4 for 72 h, then the cytotoxicity was determined using the WST-1 assay. (D-I) BCBL-1 cells were treated with these compounds at the respective 2× CC50 for 24 h, then cell cycle (D-F) and apoptosis (G-I) were measured by flow cytometry analysis. Error bars represent S.D. for 3 independent experiments, ** = p<0.01 (vs vehicle control).
(§3) The cell viability following treatment with compounds was assessed by the WST-1 assay (Roche, Indianapolis, Indiana, USA) according to the manufacturer’s protocol as described previously. The absorbance signal was measured using a microplate reader (Biotek Synergy 2). The 50% cytotoxic concentration (CC50) for each compound was calculated from these dose-response curves using the software GraphPad Prism v5.0. Data were normalized as the fold change compared to the DMSO control.

BCBL-1 = assay: WST-1 cytotoxicity assay, BCBL-1 (KSHV+ PEL); assay type: cell-based; conditions: BCBL1, 72 h
Excerpt: as §1, §2, §3

JSC-1 = assay: WST-1 cytotoxicity assay, JSC-1 (KSHV+ PEL); assay type: cell-based; conditions: 72 h
Excerpt: as §1, §2, §3

BRD4 = BRD4 signaling by Western blot (c-Myc expression); assay type: cell-based; conditions: BCBL-1 cells, 48 h, Western blot
BC-1 = assay: WST-1 cytotoxicity assay, BC-1 (KSHV+ PEL); assay type: cell-based; conditions: Homo sapiens, BC1, 72 h
Excerpt: as §1, §2, §3

BJAB.219 = assay: WST-1 cytotoxicity assay, BJAB.219 (KSHV-infected lymphoma); assay type: cell-based; conditions: 50% cytotoxic concentration, 72 h, WST-1; read-out: KSHV-infected lymphomas CC50, BJAB.219
Excerpt: as §1
BCBL-1 and iSLK.219 cells were kindly provided by Dr. Pinghui Feng (University of Southern California). BL-41, BJAB, BCP-1, BC-1, BC-3, JSC-1, HUVEC cells were purchased from American Type Culture Collection (ATCC), and cultured as recommended by the manufacturer. For making BJAB.219 cells, BJAB cells were infected with rKSHV.219 stock by spinoculation as previously reported by centrifugation at 1500×g for 60 min [31]. Then, puromycin (10 μg/ml) was added into the medium at 72 h post-infection and the medium containing puromycin was replaced twice a week. After 6-week high concentration of puromycin selection, BJAB.219 cells were then cultured in the medium with 0.5 μg/ml puromycin.
The cell viability following treatment with compounds was assessed by the WST-1 assay (Roche, Indianapolis, Indiana, USA) according to the manufacturer’s protocol as described previously. The absorbance signal was measured using a microplate reader (Biotek Synergy 2). […]

[1] = WST-1 cytotoxicity assay, BL-41 (KSHV negative lymphoma); assay type: cell-based; conditions: human
Excerpt: as §1, §3

HUVEC = assay: WST-1 cytotoxicity on primary cells HUVEC; assay type: cell-based, human
Procedure: as §3
Supplementary file ppat.1011089.s006.tif: S5 Fig Cytotoxicity of tested compounds on HUVEC. The primary cells HUVEC were treated with indicated concentrations of compounds for 72 h, then cell viability was assessed using the WST-1 assay. The CC50 for each compound was calculated from the dose-response curves using Graphpad Prism 5.0 software. Data was normalized as the fold change compared to the DMSO control. (TIF) Click here for additional data file.

[2] = WST-1 cytotoxicity assay, BJAB (KSHV negative lymphoma); assay type: cell-based; conditions: human
Excerpt: as §1, §3

Compound | H3K9Ac, H4K9Ac and Acetyl-tubulin protein levels (HDACs) | CC50 (BCP-1; read-out: CC50, BCP-1) [nM] | CC50 (BCBL-1; read-out: CC50, BCBL-1) [nM] | CC50 (JSC-1; read-out: CC50, JSC-1) [nM] | c-Myc expression (BRD4) | CC50 (BC-1; read-out: CC50, BC-1) [nM] | CC50 (BJAB.219) [nM] | CC50 at 72 h [1] [nM] | Cytotoxicity in primary cells HUVEC (HUVEC) | CC50 (BCP-1; read-out: KSHV-infected lymphomas CC50, BCP-1) [nM] | CC50 at 72 h [2] [nM] | CC50 (BCBL-1; read-out: KSHV-infected lymphomas CC50, BCBL-1) [nM] | CC50 (JSC-1; read-out: KSHV-infected lymphomas CC50, JSC-1) [nM] | CC50 (BC-1; read-out: KSHV-infected lymphomas CC50, BC-1) [nM]
Cc1sc2c(c1C)C(c1ccc(Cl)cc1)=N[C@H](CC(=O)O[C@@H](C)c1ccc(C(=O)Nc3ccccc3N)cc1)c1nnc(C)n1-2 [009N2, (S)-1-(4-((2-aminophenyl)carbamoyl)phenyl)ethyl 2-((R)-4-(4-chlorophenyl)-2,3,9-trimethyl-6H-thieno[3,2-f][1,2,4]triazolo[4,3-a][1,4]diazepin-6-yl)acetate] | upregulated | 7680 | 1070 | > 10000 | subtle effect | 3120 | – | – | – | – | – | – | – | –
COC(=O)c1ccc([C@H](C)OC(=O)C[C@@H]2N=C(c3ccc(Cl)cc3)c3c(sc(C)c3C)-n3c(C)nnc32)cc1 [009N4, methyl 4-((S)-1-(2-((S)-4-(4-chlorophenyl)-2,3,9-trimethyl-6H-thieno[3,2-f][1,2,4]triazolo[4,3-a][1,4]diazepin-6-yl)acetoxy)ethyl)benzoate] | – | 530 | 180 | 2320 | drastically downregulated | 340 | – | – | – | – | – | – | – | –
Nc1ccccc1NC(=O)c1ccc(CNC(=O)OCc2cccnc2)cc1 [Entinostat, reference compound] | – | – | – | – | – | – | 180 | 570 | moderate cytotoxicity | 200 | 420 | 170 | 150 | 300
